# Test results as given in ChEMBL document CHEMBL5247587, “Discovery of benzimidazole substituted 1, 2, 4-oxadiazole compounds as novel anti-HBV agents with TLR8-agonistic activities” (Eur J Med Chem, 2022).
# The source made the active and inactive calls. The calls are words filed in the database; no cut-off is given here.
# Assays:
# [1] = Cytotoxicity against human HepG2 2.2.15 cells assessed as reduction in cell viability incubated for 72 hrs by CCK8 assay; assay type: toxicity, cell-based
# [2] = test system: Hepatitis B virus; assay: Antiviral activity against HBV infected in human HepG2 2.2.15 cells assessed as inhibition of viral DNA replication at 4 uM incubated for 6 days with every 2 days media replacement by RT-PCR analysis relative to control; assay type: functional; parameters: scale not given: the % may be the effect or the level left; conditions: time 6 day
# [3] = test system: Hepatitis B virus; assay: Antiviral activity against HBV infected in human HepG2 2.2.15 cells assessed as inhibition of viral DNA replication incubated for 6 days with every 2 days media replacement by RT-PCR analysis; assay type: functional, organism-based
# [4] = Selectivity index, ratio of CC50 for human HepG2 2.2.15 cells to IC50 for HBV infected in human HepG2 2.2.15 cells; assay type: toxicity, cell-based; conditions: read-out: Ratio CC50/IC50
# [5] = test system: Hepatitis B virus; assay: Antiviral activity against HBV infected in ETV/LAM-resistant human HepG2.A64 cells assessed as inhibition of viral DNA replication incubated for 72 hrs by RT-PCR analysis; assay type: functional, organism-based; conditions: HepG2.A64, 72 h
# [6] = Selectivity index, ratio of CC50 for human HepG2.A64 cells to IC50 for HBV infected in ETV/LAM-resistant human HepG2.A64 cells; assay type: toxicity; conditions: read-out: Ratio CC50/IC50
# [7] = test system: Hepatitis B virus; assay: Potency index, ratio of LAM IC50 to test compound IC50 for HBV infected in ETV/LAM-resistant human HepG2.A64 cells assessed as inhibition of viral DNA replication; assay type: functional
# [8] = Cytotoxicity against human HepG2.A64 cells assessed as reduction in cell viability incubated for 72 hrs by CCK8 assay; assay type: toxicity, cell-based
# [9] = biological target: Nuclear factor NF-kappa-B complex (Homo sapiens) (UniProt Q00653+P19838+Q04206); assay: Activation of NF-kappaB (unknown origin) transfected in HEK293T cells at 0.4 to 10 uM incubated for 48 hrs by Dual-luciferase reporter gene assay; assay type: cell-based; conditions: dose 0.4-10 µM
# Sequence of Nuclear factor NF-kappa-B complex (Homo sapiens) (P19838 whole entry, looked up): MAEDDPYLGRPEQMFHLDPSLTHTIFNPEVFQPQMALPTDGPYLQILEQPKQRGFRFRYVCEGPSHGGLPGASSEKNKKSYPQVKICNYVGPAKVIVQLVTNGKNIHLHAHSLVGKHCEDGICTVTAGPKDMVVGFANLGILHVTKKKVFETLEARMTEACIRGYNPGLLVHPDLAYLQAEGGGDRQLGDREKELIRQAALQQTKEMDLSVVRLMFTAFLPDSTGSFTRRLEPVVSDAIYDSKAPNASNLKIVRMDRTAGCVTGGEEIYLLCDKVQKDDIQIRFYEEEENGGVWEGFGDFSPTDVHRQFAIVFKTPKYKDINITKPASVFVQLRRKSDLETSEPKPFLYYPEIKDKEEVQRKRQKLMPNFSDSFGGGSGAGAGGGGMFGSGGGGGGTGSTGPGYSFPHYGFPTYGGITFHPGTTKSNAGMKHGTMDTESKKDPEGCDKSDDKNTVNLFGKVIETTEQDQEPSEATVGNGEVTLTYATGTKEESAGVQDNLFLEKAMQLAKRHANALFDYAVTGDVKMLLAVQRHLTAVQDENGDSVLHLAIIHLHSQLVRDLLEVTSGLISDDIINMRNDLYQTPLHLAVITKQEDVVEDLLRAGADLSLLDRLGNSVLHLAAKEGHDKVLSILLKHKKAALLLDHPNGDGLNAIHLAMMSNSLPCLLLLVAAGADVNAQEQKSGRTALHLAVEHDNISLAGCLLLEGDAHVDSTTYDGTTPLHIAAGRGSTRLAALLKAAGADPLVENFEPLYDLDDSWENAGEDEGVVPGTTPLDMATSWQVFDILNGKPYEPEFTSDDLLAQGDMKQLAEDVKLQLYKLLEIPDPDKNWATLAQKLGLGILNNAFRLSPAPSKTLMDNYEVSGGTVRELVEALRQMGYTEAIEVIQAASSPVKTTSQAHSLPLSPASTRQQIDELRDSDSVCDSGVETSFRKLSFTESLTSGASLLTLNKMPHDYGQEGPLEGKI
# Sequence of Nuclear factor NF-kappa-B complex (Homo sapiens) (Q00653 whole entry, looked up): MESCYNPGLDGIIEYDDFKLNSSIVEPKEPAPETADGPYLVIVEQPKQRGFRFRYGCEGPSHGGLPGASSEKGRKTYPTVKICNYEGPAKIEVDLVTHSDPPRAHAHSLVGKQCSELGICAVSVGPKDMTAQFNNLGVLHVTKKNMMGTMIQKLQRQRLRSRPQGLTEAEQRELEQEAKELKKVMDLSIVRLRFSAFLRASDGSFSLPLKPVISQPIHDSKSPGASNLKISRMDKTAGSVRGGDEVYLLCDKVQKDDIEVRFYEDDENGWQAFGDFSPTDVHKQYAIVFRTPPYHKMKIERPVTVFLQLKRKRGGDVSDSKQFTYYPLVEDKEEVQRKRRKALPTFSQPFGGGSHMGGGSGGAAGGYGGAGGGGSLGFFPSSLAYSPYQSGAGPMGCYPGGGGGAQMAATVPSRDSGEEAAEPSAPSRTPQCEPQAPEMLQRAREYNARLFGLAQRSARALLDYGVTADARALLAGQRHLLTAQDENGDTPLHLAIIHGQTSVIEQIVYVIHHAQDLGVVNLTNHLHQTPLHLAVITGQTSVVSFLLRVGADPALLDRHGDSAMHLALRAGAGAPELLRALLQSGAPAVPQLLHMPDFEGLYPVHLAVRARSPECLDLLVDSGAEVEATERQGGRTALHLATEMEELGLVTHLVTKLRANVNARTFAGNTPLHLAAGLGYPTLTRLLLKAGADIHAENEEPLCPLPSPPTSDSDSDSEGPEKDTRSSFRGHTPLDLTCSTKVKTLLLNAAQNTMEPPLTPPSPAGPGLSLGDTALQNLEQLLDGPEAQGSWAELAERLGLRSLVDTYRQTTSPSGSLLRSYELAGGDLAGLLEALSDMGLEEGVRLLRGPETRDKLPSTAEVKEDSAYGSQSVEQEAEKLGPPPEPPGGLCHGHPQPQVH
# Sequence of Nuclear factor NF-kappa-B complex (Homo sapiens) (Q04206 whole entry, looked up): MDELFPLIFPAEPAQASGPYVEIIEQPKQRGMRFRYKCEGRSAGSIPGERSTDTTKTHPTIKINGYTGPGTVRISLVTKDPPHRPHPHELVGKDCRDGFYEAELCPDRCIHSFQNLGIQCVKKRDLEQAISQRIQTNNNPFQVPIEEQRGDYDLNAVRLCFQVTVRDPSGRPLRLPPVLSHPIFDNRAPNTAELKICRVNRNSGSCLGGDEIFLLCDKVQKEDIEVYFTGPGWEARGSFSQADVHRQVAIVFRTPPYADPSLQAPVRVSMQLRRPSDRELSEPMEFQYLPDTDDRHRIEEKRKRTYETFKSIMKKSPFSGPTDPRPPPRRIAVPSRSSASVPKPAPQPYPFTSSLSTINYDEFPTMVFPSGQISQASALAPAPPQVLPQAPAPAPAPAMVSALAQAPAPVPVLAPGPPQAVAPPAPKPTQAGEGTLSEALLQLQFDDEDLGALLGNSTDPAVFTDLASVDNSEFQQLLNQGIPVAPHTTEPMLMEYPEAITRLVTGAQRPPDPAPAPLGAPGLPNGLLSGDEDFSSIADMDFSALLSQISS
# [10] = biological target: T1, Toll-like receptor 8 (Homo sapiens) (UniProt Q9NR97); assay: Agonist activity at human TLR8 transfected in HEK293T cells co-transfected with NF-kappaB and renilla assessed as increase in TLR8-induced NF-kappaB activity at 0.4 to 10 uM incubated for 48 hrs by Dual-luciferase reporter gene assay; assay type: cell-based; conditions: filed as agonist, dose 0.4-10 µM
# T1 sequence (whole entry): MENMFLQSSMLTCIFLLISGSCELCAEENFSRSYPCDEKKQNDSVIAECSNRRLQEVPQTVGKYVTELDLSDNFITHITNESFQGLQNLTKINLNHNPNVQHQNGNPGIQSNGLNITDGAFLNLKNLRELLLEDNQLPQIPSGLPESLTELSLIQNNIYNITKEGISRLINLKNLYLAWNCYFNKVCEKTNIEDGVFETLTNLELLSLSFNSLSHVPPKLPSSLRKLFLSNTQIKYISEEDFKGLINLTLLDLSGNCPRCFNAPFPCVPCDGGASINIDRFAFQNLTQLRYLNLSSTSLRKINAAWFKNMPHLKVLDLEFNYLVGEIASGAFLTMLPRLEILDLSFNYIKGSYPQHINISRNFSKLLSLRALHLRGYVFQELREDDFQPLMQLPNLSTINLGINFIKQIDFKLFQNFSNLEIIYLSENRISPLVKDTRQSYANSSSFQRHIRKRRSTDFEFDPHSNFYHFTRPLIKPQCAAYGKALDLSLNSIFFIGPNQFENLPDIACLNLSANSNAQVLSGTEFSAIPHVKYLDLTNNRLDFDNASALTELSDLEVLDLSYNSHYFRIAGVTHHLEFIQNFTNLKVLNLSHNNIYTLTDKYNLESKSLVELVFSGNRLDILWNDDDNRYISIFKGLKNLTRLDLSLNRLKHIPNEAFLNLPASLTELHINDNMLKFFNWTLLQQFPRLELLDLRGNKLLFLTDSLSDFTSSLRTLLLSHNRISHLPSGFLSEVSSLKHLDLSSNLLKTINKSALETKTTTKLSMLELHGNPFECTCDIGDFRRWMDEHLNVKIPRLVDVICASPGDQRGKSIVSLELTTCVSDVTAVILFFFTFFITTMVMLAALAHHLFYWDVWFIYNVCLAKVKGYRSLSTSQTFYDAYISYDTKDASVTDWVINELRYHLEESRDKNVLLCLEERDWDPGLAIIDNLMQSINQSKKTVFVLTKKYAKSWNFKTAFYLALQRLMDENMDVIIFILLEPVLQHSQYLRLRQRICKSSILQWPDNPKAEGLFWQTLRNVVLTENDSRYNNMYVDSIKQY
# [11] = biological target: T1, Toll-like receptor 8 (Homo sapiens); assay: Agonist activity at TLR8 in human PBMC cells assessed as increase in TNF-alpha level incubated for 24 hrs by ELISA; assay type: cell-based; conditions: filed as agonist, dose 0.4-10 µM
# [12] = biological target: T1, Toll-like receptor 8 (Homo sapiens); assay: Agonist activity at TLR8 in human PBMC cells assessed as increase in IL-12 level incubated for 24 hrs by ELISA; assay type: cell-based; conditions: filed as agonist, dose 0.4-10 µM
SMILES,CC50 at 72 h [1] [µM],Activity [2] [%],IC50 [3] [µM],selectivity ratio [4],further results
O=C(NCCn1cnc2cc(-c3noc(CCC4CCCC4)n3)ccc21)c1cccc(Cl)c1,> 20,82.78,0.85,> 23.5,–
O=C(NCCn1cnc2cc(-c3noc(CCC4CCCC4)n3)ccc21)c1ccc(C(F)(F)F)cc1,> 20,63.99,0.69,> 29,IC50 [5]: 0.61 µM; selectivity ratio [6]: > 32.8; Ratio IC50 [7]: 150; CC50 at 72 h [8]: > 20 µM
O=C(NCCn1cnc2cc(-c3noc(CCC4CCCC4)n3)ccc21)c1cccc(Br)c1,> 20,64.39,3.32,> 6.02,–
O=C(NCCn1cnc2cc(-c3noc(CCC4CCCC4)n3)ccc21)c1ccc(F)cc1,> 20,65.06,1.33,> 15,–
Nc1ccn([C@@H]2CS[C@H](CO)O2)c(=O)n1 [LAMIVUDINE],> 20,84.42,< 0.1,> 1000,IC50 [5]: > 100 µM; CC50 at 72 h [8]: > 100 µM
O=C(NCCn1cnc2cc(-c3noc(CCC4CCCC4)n3)ccc21)c1ccccc1,> 20,28.98,–,–,–
O=C(NCCn1cnc2cc(-c3noc(CCC4CCCC4)n3)ccc21)c1ccccc1I,> 20,30.88,–,–,–
Cc1ccccc1NC(=O)CCn1cnc2cc(-c3noc(CCC4CCCC4)n3)ccc21,> 20,7.43,–,–,–
O=C(NCCn1cnc2cc(-c3noc(CCC4CCCC4)n3)ccc21)c1ccccc1Br,> 20,53.47,1.61,> 12.4,–
O=C(NCCn1cnc2cc(-c3noc(CCC4CCCC4)n3)ccc21)c1ccc(I)cc1,> 20,54.76,2.63,> 7.6,–
COc1ccccc1C(=O)NCCn1cnc2cc(-c3noc(CCC4CCCC4)n3)ccc21,> 20,76.09,1.55,> 12.9,–
O=C(CCn1cnc2cc(-c3noc(CCC4CCCC4)n3)ccc21)NC1CCCC1,> 20,21.36,–,–,–
O=C(CCn1cnc2cc(-c3noc(CCC4CCCC4)n3)ccc21)N1CCOCC1,> 20,0.02,–,–,–
O=C(CCn1cnc2cc(-c3noc(CCC4CCCC4)n3)ccc21)N1CCCC1,> 20,48.57,5.17,> 3.69,–
O=C(CCn1cnc2cc(-c3noc(CCC4CCCCC4)n3)ccc21)N1CCCC1,> 20,0.74,–,–,–
O=C(NCCn1cnc2cc(-c3noc(CCC4CCCC4)n3)ccc21)c1ccccc1Cl,> 20,10.63,–,–,–

SMILES,CC50 at 72 h [1] [µM],Activity [2] [%],IC50 [3] [µM],selectivity ratio [4],further results
Cc1cccc(C(=O)NCCn2cnc3cc(-c4noc(CCC5CCCC5)n4)ccc32)c1,> 20,9.58,–,–,–
O=C(CCn1cnc2cc(-c3noc(CCc4ccccc4)n3)ccc21)N1CCCC1,> 20,24.46,–,–,–
O=C(NCCn1cnc2cc(-c3noc(CCC4CCCC4)n3)ccc21)c1ccc(Br)cc1,> 20,38.03,–,–,–
O=C(CCn1cnc2cc(-c3noc(CCC4CCCC4)n3)ccc21)NC1CCCCC1,> 20,2.64,–,–,–
O=C(NCCn1cnc2cc(-c3noc(CCC4CCCC4)n3)ccc21)c1ccccc1F,> 20,54.72,1.07,> 18.7,–
O=C(NCCn1cnc2cc(-c3noc(CCC4CCCC4)n3)ccc21)c1ccccc1C(F)(F)F,> 20,46.02,3.89,> 5.14,–
O=C(NCCn1cnc2cc(-c3noc(CCC4CCCC4)n3)ccc21)c1cccc(F)c1,> 20,45.92,–,–,–
Cc1ccccc1C(=O)NCCn1cnc2cc(-c3noc(CCC4CCCC4)n3)ccc21,> 20,6.59,–,–,–
O=C(NCCn1cnc2cc(-c3noc(CCC4CCCC4)n3)ccc21)c1cccc(I)c1,> 20,68.86,1.67,> 12,–
COc1cccc(C(=O)NCCn2cnc3cc(-c4noc(CCC5CCCC5)n4)ccc32)c1,> 20,70.78,1.6,> 12.5,–
O=C(NCCn1cnc2cc(-c3noc(CCC4CCCC4)n3)ccc21)c1ccc(Cl)cc1,> 20,63.41,1.96,> 10.2,–
Cc1ccc(C(=O)NCCn2cnc3cc(-c4noc(CCC5CCCC5)n4)ccc32)cc1,> 20,54.11,1.53,> 13.1,–
COc1ccc(C(=O)NCCn2cnc3cc(-c4noc(CCC5CCCC5)n4)ccc32)cc1,> 20,73.8,2.64,> 7.58,–
O=C(NCCn1cnc2cc(-c3noc(CCC4CCCC4)n3)ccc21)c1cccc(C(F)(F)F)c1,> 20,84.47,0.53,> 37.7,IC50 [5]: 0.44 µM; selectivity ratio [6]: > 45.5; Ratio IC50 [7]: 150; Activity [9]: inactive; Activity [10]: Active; Activity [11]: Dose-Dependent Effect; Activity [12]: Dose-Dependent Effect; CC50 at 72 h [8]: > 20 µM
O=C(CCn1cnc2cc(-c3noc(CCC4CCCC4)n3)ccc21)N1CCCCC1,> 20,53.4,6.3,> 3.17,–
